According to publication PMC6175574, “Kinetic mechanism of coupled binding in sodium-aspartate symporter GltPh” (eLife, 2018):
“And” between values parts separate entries of the source, which are not always exact repeats. Equal entries are not always repeated. Where two headings read alike, the source gives them in different places.

Assays:
[1] = target: P11W^IFS (Hg^2+-crosslinked P11W/K55C/A364C GltPh, inward-facing state) (Pyrococcus horikoshii, UniProt O59010, A364C/C321A/D37H/E368H/K125H/K132H/K223H/K264H/K40H/K55C/P11W); format: binding; conditions: for slope of kr values versus Na^+ concentration: linear fit constrained through the origin, kr from plateaus of ligand binding rates
Description: (§1) For emission scans, protein samples at 1 µM were prepared in 2 mL of 20 mM Hepes/Tris pH 7.4, 300 mM choline chloride and 1 mM DDM. […] Baseline was determined using buffer only and subtracted from the data. […] For real-time fluorescence measurements of ligand binding, protein samples at 1 µM were incubated in 2 mL fluorometer cell containing 20 mM Hepes/Tris pH 7.4, 300 mM choline chloride and 1 mM DDM with various NaCl concentrations at 25°C. Data were normalized by dividing fractional fluorescence change by the maximal change observed upon addition of saturating ligand concentrations at the end of each experiment. After signal equilibration, ligands were added with fast stirring. Excitation and emission wavelengths were 295 and 350 nm, respectively. Here and elsewhere, data were analyzed using SigmaPlot 12.0 (Systat Software, Inc) and GraphPad Prism 7 (GraphPad Software). All kinetic relaxation curves were fitted to single exponentials.
The full Equation 4 requires fitting of four rate constants, kr, k-r, kon and koff ([Vogt et al., 2012]). […] The data for DL-TBOA binding were fitted to Equation 3.

P11W^IFS [2] = target: T1, P11W^IFS (Pyrococcus horikoshii, UniProt O59010, A364C/C321A/D37H/E368H/K125H/K132H/K223H/K264H/K40H/K55C/P11W); format: binding; conditions: for koff: fitted; for kon: reaction 1, T + Na = TNa
Source text: The kinetic models in Figure 4, Figure 4—figure supplement 4 and Figure 5—figure supplement 1 were implemented in KinTek program (KinTek, Inc) ([Johnson, 2009]) for global parameter fitting and in Copasi ([Hoops et al., 2006]) for simulations. […] Raw relaxation curves, including 21 dissociation and 58 binding reactions were fitted globally in KinTek (Figure 4—figure supplements 2 and 3).
(§2) 68 individual relaxation curves were fitted globally, allowing only the rates of DL-TBOA dissociation to be adjusted (Figure 4—figure supplement 5).

P11W^IFS [3] = target: T1, P11W^IFS; experiment: Fluorescence-based titration using RH421; format: binding
Description: After addition of appropriate NaCl concentrations and 200 nM RH421 (Sigma-Aldrich), the samples were incubated at 25°C until fluorescence signal plateaued. […] Excitation and emission wavelengths were 532 and 628 nm, respectively.

wild type GltPh [4] = target: T2, wild type GltPh (Pyrococcus horikoshii, UniProt O59010); experiment: L-asp transport (uptake and exchange) in proteoliposomes; format: biochemical; design: made in house; host or cells: Escherichia coli (DH10b is stated for the mutants); conditions: 35°C, 200 mM NaCl external
Description: GltPh protein samples were reconstituted into liposomes as previously described ([Boudker et al., 2007]; [Ryan et al., 2009]). In brief, 0.1% L-α-Phosphatidylethanolamine-N-lissamine rhodamine B sulfonyl (Avanti Polar Lipids) was added to with 3:1 (w/w) mixture of E.coli polar lipid extract and egg phosphatidylcholine and dried on rotary evaporator and under vacuum overnight. The mixture was hydrated using 20 mM Hepes/Tris, pH 7.4 and 200 mM KCl buffer at final lipid concentration of 5 mg/ml by 10 freeze/thaw cycles. The suspensions were extruded through 400 nm filter membranes (Whatman) 10 times to form unilamellar liposomes. The rhodamine fluorescence of the liposomes was measured to generate a concentration calibration curve; excitation and emission wavelengths were 560 and 583 nm, respectively. […] Final concentrations of proteoliposomes were determined by rhodamine fluorescence.
For substrate exchange experiments, the internal proteoliposome buffer was replaced with buffer containing 20 mM Hepes/Tris, pH 7.4 and 200 mM NaCl and 100 µM L-asp. […] The washed filter membranes were transferred into scintillation vials, and retained radioactivity was measured using LS6500 scintillation counter (Beckman Coulter). Background uptake was measured in the reaction buffer containing 20 mM Hepes/Tris pH 7.4, 200 mM KCl, 500 nM ^3H-L-asp and 100 nM cold L-asp.

wild type GltPh [5] = target: T2, wild type GltPh; conditions: 100 mM NaCl; ref Ryan et al., 2009; cited from earlier work
[6] = target: T3, FM-P11W^IFS (R276S/M395R within P11W^IFS background) (Pyrococcus horikoshii, UniProt O59010, A364C/C321A/D37H/E368H/K125H/K132H/K223H/K264H/K40H/K55C/M395R/P11W/R276S); format: binding
T3 construct: made in house; host or cells: Escherichia coli DH10b
Description: as §1, §2

GltPh Na3 site = test system: GltPh Na3 site; design: method as in Heinzelmann et al., 2011; Heinzelmann et al., 2013; conditions: estimated in computational studies, ref Heinzelmann et al., 2011, 2013; cited from earlier work

T3 sequence (O59010 1-417 P11W/D37H/K40H/K55C/K125H/K132H/K223H/K264H/R276S/C321A/A364C/E368H/M395R): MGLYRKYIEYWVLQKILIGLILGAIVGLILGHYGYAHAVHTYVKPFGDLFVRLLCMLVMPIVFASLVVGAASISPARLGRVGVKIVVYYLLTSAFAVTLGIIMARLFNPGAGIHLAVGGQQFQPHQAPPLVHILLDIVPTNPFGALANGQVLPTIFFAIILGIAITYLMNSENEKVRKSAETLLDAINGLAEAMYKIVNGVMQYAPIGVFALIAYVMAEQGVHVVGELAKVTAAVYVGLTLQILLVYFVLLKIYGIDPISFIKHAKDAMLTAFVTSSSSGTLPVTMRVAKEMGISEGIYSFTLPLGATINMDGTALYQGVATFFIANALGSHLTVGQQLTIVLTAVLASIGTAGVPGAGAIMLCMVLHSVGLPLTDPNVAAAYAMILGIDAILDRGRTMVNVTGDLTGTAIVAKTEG
T1 sequence (O59010 whole entry P11W/D37H/K40H/K55C/K125H/K132H/K223H/K264H/C321A/A364C/E368H): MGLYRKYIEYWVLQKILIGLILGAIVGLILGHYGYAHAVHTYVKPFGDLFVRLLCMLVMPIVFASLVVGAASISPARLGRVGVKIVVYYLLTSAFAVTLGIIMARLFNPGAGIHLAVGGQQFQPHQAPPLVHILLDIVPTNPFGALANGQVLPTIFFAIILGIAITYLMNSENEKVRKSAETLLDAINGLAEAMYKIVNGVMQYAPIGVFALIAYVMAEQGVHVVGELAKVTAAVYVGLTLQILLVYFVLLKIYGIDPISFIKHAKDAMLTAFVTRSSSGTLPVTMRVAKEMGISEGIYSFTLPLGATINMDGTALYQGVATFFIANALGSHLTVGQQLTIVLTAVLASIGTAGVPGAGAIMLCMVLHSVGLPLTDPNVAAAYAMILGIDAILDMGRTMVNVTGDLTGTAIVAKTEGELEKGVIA
P11W^IFS (Hg^2+-crosslinked P11W/K55C/A364C GltPh, inward-facing state), sequence (O59010 whole entry P11W/D37H/K40H/K55C/K125H/K132H/K223H/K264H/C321A/A364C/E368H): as above
T2 sequence (O59010 whole entry): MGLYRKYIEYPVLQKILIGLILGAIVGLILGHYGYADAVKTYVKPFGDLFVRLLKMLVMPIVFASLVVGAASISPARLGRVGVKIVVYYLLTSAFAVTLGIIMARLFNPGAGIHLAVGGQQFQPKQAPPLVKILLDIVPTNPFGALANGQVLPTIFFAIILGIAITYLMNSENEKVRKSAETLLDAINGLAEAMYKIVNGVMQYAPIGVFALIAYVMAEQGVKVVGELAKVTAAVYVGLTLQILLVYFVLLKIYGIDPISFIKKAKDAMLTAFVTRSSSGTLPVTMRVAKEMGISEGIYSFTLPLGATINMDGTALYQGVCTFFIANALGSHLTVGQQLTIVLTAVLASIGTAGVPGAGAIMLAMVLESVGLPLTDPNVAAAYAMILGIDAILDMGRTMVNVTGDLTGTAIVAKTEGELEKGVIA

Structure (SMILES): N[C@H](C(=O)O)[C@H](OCc1ccccc1)C(=O)O (racemic) [DL-TBOA, DL-threo-β-benzyloxyaspartic acid, reference compound]
- kobs of DL-TBOA binding ([1]; 8 mM DL-TBOA, 4 mM Na^+, representative experiment, single exponential fit): 0.2106 s⁻¹
- slope of kr values versus Na^+ concentration [1]: 26 ± 1.7 M⁻¹ s⁻¹
- increase in the rate of unbinding relative to L-asp in kinetic model (P11W^IFS [2]): about 20 fold
- koff (P11W^IFS [2]; reaction 3, TNa + A = TANa, P11W^IFS/DL-TBOA model): 11.5 ± 5 s⁻¹
- koff (P11W^IFS [2]; reaction 4, TNa2 + A = TANa2, P11W^IFS/DL-TBOA model): 1.72 ± 0.09 s⁻¹

Structure (SMILES): N[C@@H](CC(=O)O)C(=O)O [L-asp, aspartate]
- kobs of L-asp binding ([1]; 0.5 mM L-asp, 4 mM Na^+, representative experiment, single exponential fit): 0.0712 s⁻¹
- slope of kr values versus Na^+ concentration [1]: 36 ± 0.9 M⁻¹ s⁻¹ and 36 M⁻¹ s⁻¹
- slope of log-log plot of L-asp dissociation constants as a function of Na^+ concentration (P11W^IFS [3]): 2.5
- rate of concentrative Na^+-driven uptake of radiolabeled L-asp compared with rate of L-asp exchange (wild type GltPh [4]): significantly higher
- Km (wild type GltPh [5]): ~0.1 µM

Structure (SMILES): [Na+] [Na^+, sodium]
- Kd ([1]; Hill coefficient n fixed to 1, L-asp dissociation experiments, read-out: KD,Na of rapidly equilibrating Na^+ ions (fit to Equation 2)): 40 ± 20 µM
- Kd ([1]; Hill coefficient n fixed to 2, L-asp dissociation experiments, read-out: KD,Na of rapidly equilibrating Na^+ ions (fit to Equation 2)): 130 ± 20 µM
- Kd ([1]; Hill coefficient n fixed to 3, L-asp dissociation experiments, read-out: KD,Na of rapidly equilibrating Na^+ ions (fit to Equation 2)): 150 ± 13 µM
- Kd ([1]; read-out: affinity of the two 'locking' Na^+ ions): ~100 µM
- Na^+ concentration at which fluxes through 'second Na^+ binds first' and 'L-asp binds first' branches are equal (P11W^IFS [2]; kinetic model, forward and reverse directions): ~ 3.6 mM and 3.6 mM
- kon (P11W^IFS [2]; P11W^IFS/DL-TBOA model, fixed (*)): 36 M⁻¹ s⁻¹
- kon (P11W^IFS [2]; P11W^IFS/L-asp model, fixed during fitting (*)): 36 M⁻¹ s⁻¹
- remaining binding rates for Na^+ ions (P11W^IFS [2]; set at an arbitrary high value): 10^7 M^−1 s^−1
- affinity of binding of the first Na^+ ion (P11W^IFS [2]; suggested by experimental data): no more than −0.5 kcal/mol
- increase of the rate of binding of the first Na^+ ion relative to P11W^IFS ([6]; kinetic model adjustment): 4 fold
- kon ([6]; reaction 1, T + Na = TNa, FM-P11W^IFS/L-asp model): 144 M⁻¹ s⁻¹
- koff ([6]; reaction 1, T + Na = TNa, FM-P11W^IFS/L-asp model, optimized in global fitting (#)): 39 ± 3 s⁻¹
- intrinsic affinity of Na3 site (GltPh Na3 site): -16 kcal/mol
